{"source": "patent US5922718A", "about": "“Triazolones as apolipoprotein-B synthesis inhibitors” (Janssen Pharmaceutica, N.V., priority 1995, dated 1999)"}
{"test_system": "apolipoprotein B", "assay": "Apolipoprotein B (apo B) Inhibition Test", "format": "cell-based, human", "settings": "HepG2-cells, overnight at 37° C., radioactively labelled leucine, double immunoprecipitation; read-out: IC50 (concentration of the drug needed to reduce apoB secretion to 50% of the control)", "procedure": "(§1) Cultured human liver cells (HepG2-cells), which synthesize and secrete low-density lipoproteins, were incubated overnight at 37° C. in a liquid medium containing radioactively labelled leucine. Thus radioactively labelled leucine was incorporated into the apolipoprotein B. The liquid medium was decanted and the apolipoprotein B was isolated by means of a double immunoprecipitation, i.e. first an apolipoprotein B-specific antibody (antibody1) was added to the liquid medium and subsequently a second antibody (antibody2) was added which binds specifically to the apoB-antibody1 -complex. The thus formed apoB-antibody1 -antibody2 complex precipitated and was isolated by centrifuge. Quantification of the amount of apolipoprotein B synthesized during the night resulted from measuring the radioactivity of the isolated complex. To measure the inhibiting activity of the test compound, that test compound was added to the liquid medium at different concentrations and the concentration of apolipoprotein B synthesized in the presence of a test compound (concentration apoB(after)) was compared to the concentration of apolipoprotein B which was synthesized in the absence of the test compound (concentration apoB(control)). For each experiment the inhibition of apolipoprotein-B formation was expressed as\n(§2) % inhibition=100×(1-concentration of apoB(after)/concentration\n(§3) When more experiments were carried out for the same concentration, the median value of the inhibition calculated for these experiments was calculated. IC50 -values (concentration of the drug needed to reduce apoB secretion to 50% of the control) were also computed.", "units": {"IC50": "nM"}}
{"smiles": "CCC(C)n1cnn(-c2ccc(N3CCN(c4ccc(OCC5COC(CCn6cncn6)(c6ccc(F)cc6F)O5)cc4)CC3)cc2)c1=O", "note": "(stereo not shown) [Compound 26]", "IC50": 300}
{"test_system": "apolipoprotein B", "assay": "Apolipoprotein B (apo B) Inhibition Test", "format": "cell-based, human", "settings": "Homo sapiens, HepG2-cells, overnight at 37° C., radioactively labelled leucine, double immunoprecipitation; read-out: IC50 (concentration of the drug needed to reduce apoB secretion to 50% of the control)", "procedure": "as §1, §2, §3", "units": {"IC50": "nM"}}
{"smiles": "CCCn1c(C)nn(-c2ccc(N3CCN(c4ccc(OC[C@H]5CO[C@](Cn6ccnc6)(c6ccc(Cl)cc6Cl)O5)cc4)CC3)cc2)c1=O", "note": "(relative stereo) [Compound 4]", "IC50": 1000}
{"smiles": "CC(C)n1cnn(-c2ccc(N3CCN(c4ccc(OC[C@H]5CO[C@](Cn6ccnc6)(c6ccc(Cl)cc6Cl)O5)cc4)CC3)cc2)c1=O", "note": "(relative stereo) [Compound 7]", "IC50": 630}
{"smiles": "CC(C)n1cnn(-c2ccc(N3CCN(c4ccc(OC[C@H]5CO[C@](Cn6ccnc6)(c6cccc7ccccc67)O5)cc4)CC3)cc2)c1=O", "note": "(relative stereo) [Compound 9]", "IC50": 560}
{"smiles": "CC(C)n1cnn(-c2ccc(N3CCN(c4ccc(OC[C@H]5CO[C@](Cn6cccn6)(c6ccc(F)cc6F)O5)cc4)CC3)cc2)c1=O", "note": "(relative stereo) [Compound 10]", "IC50": 290}
{"smiles": "CC(C)n1cnn(-c2ccc(N3CCN(c4ccc(OC[C@H]5CO[C@](Cn6cncn6)(c6ccc(Cl)cc6Cl)O5)cc4)CC3)cc2)c1=O", "note": "(relative stereo) [Compound 17]", "IC50": 720}
{"smiles": "CC(C)n1cnn(-c2ccc(N3CCN(c4ccc(OC[C@H]5CO[C@](Cn6cncn6)(c6ccc(F)cc6F)O5)cc4)CC3)cc2)c1=O", "note": "(relative stereo) [Compound 23]", "IC50": 340}
{"smiles": "CC(C)n1cnn(-c2ccc(N3CCN(c4ccc(OC[C@H]5CO[C@](Cn6cncn6)(c6cccc7ccccc67)O5)cc4)CC3)cc2)c1=O", "note": "(relative stereo) [Compound 24]", "IC50": 910}
{"smiles": "CCC(C)n1cnn(-c2ccc(N3CCN(c4ccc(OC[C@H]5CO[C@](Cn6cncn6)(c6ccc(F)cc6F)O5)cc4)CC3)cc2)c1=O", "note": "(stereo partly drawn) [Compound 19, cis-2-[4-[4-[4-[[2-(2,4-difluorophenyl)-2-(1H-1,2,4-triazol-1yl-methyl)-1,3-dioxolan-4-yl]methoxy]phenyl]-1-piperazinyl]phenyl]-2,4-dihydro-4-(1-methylpropyl)-3H-1,2,4-triazol-3-one]", "IC50": 170}
{"smiles": "CCC(C)n1cnn(-c2ccc(N3CCN(c4ccc(OC[C@H]5CO[C@](Cn6cncn6)(c6ccc(F)cc6)O5)cc4)CC3)cc2)c1=O", "note": "(stereo partly shown) [Compound 20]", "IC50": 860}
{"smiles": "CCC(C)n1cnn(-c2ccc(N3CCN(c4ccc(OC[C@H]5CO[C@](Cn6cncn6)(c6ccc(Cl)cc6Cl)O5)cc4)CC3)cc2)c1=O", "note": "(stereo partly shown) [Compound 22]", "IC50": 390}
{"smiles": "CCC(C)n1cnn(-c2ccc(N3CCN(c4ccc(OCC5COC(CCn6cncn6)(c6ccc(F)cc6F)O5)cc4)CC3)cc2)c1=O", "note": "(stereo not shown) [Compound 25]", "IC50": 230}
{"smiles": "CCC(C)n1cnn(-c2ccc(N3CCN(c4ccc(OCC5COC(CCn6cncn6)(c6ccc(Cl)cc6)O5)cc4)CC3)cc2)c1=O", "note": "(stereo not shown) [Compound 27]", "IC50": 270}
